Reference: US8354111B2, “Stable cell binding chimeric peptides” (Hadasit Medical Research Services and Development Ltd., priority 2008, dated 2013)
No end group written: not given here.

Tests used:
[1] = Toxicity assessment, cell survival of endothelial cells; format: cell-based; details: bovine, endothelial cells (BAEC), increasing concentrations up to 1,000 ng/ml, 48 hours of exposure
Experimental: (§1) The chimeric peptides of the invention and the peptides from which they are derived were found safe, non-toxic, to normal cells such endothelial cells (BAEC; FIG. 9a) and fibroblasts (FF; FIG. 9B). Cells incubated with increasing concentrations (up to 1,000 ng/ml) of the chimeric peptide (black square), the haptide alone (white/empty circle) or the M-tide alone (white/empty square), maintained 100% survival. Cell survival was measured following 48 hours of exposure to the peptides.

[2] = Toxicity assessment, cell survival of fibroblasts; format: cell-based; details: human, fibroblasts (FF), increasing concentrations up to 1,000 ng/ml, 48 hours of exposure
Experimental: as §1

| Sequence | viability at 48 h [1] [%] | viability at 48 h [2] [%] |
| --- | --- | --- |
| KTRWYSMKKTTMKVFQKRLDGSVDFKK [chimeric peptide] | 100 | 100 |
| KTRWYSMKKTTMK [haptide, KTRWYSMKKTTMK, reference compound] | 100 | 100 |
| VFQKRLDGSVDFKK [M-tide, VFQKR LDGSV DFKK] | 100 | 100 |
